Read-outs that look alike come from different tables or passages of the source.
Assays:
P. aeruginosa HM-214 = conditions: strain HM-214; antibiotic + D-11 (MICb/MICbc 128/4)
Summary of the method: (§1)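 Two-fold serial dilutions in MHB received an equal volume of bacteria (suspension about 1 × 10^6 CFU/mL). Plates were held 18 h at 37 °C, then read visually for growth. Triplicate, CLSI-based.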

[1] = test system: clinical P. aeruginosa isolates; experiment: microbe, parasite or virus in culture; conditions: Pseudomonas aeruginosa, 18 h, antibiotic alone
Summary of the method: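 Broth microdilution per CLSI in MHB, two-fold drug dilutions mixed with an equal volume of bacteria at about 1 × 10^6 CFU/mL. After 18 h at 37 °C, MIC taken as the lowest concentration with no visible growth; run in triplicate.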

P. aeruginosa ATCC27853 = experiment: microbe, parasite or virus in culture; parameters: MICa: MIC of the antibiotic / MICac: MIC of the antibiotic in the combination: unit not given beside the values; conditions: for MIC: Pseudomonas aeruginosa, ATCC27853, 18 h, read-out: MICa: MIC of the antibiotic; for FICI / MICac: MIC of the antibiotic in the combination: strain ATCC27853; for FICI: antibiotic + D-11 (MICb/MICbc 32/4); for MICac: MIC of the antibiotic in the combination: with D-11 at MICbc 4, unit not given
Summary of the method: as §1

P. aeruginosa NR-31041 = experiment: microbe, parasite or virus in culture; parameters: MICa: MIC of the antibiotic / MICac: MIC of the antibiotic in the combination: unit not given beside the values; conditions: for MIC: Pseudomonas aeruginosa, NR31041, 18 h, read-out: MICa: MIC of the antibiotic; for FICI / MICac: MIC of the antibiotic in the combination: strain NR-31041; for FICI: antibiotic + D-11 (MICb/MICbc 64/4); for MICac: MIC of the antibiotic in the combination: with D-11 at MICbc 4, unit not given
Summary of the method: as §1

P. aeruginosa PAK = experiment: microbe, parasite or virus in culture; parameters: MICa: MIC of the antibiotic / MICac: MIC of the antibiotic in the combination: unit not given beside the values; conditions: for MIC: Pseudomonas aeruginosa, 18 h, read-out: MICa: MIC of the antibiotic; for FICI / MICac: MIC of the antibiotic in the combination: strain PAK; for FICI: antibiotic + D-11 (MICb/MICbc 64/4); for MICac: MIC of the antibiotic in the combination: with D-11 at MICbc 4, unit not given
Summary of the method: as §1

P. aeruginosa NR-31040 = experiment: microbe, parasite or virus in culture; parameters: MICa: MIC of the antibiotic / MICac: MIC of the antibiotic in the combination: unit not given beside the values; conditions: for FICI: antibiotic + D-11 (MICb/MICbc 128/4); for MICac: MIC of the antibiotic in the combination: with D-11 at MICbc 4
Summary of the method: as §1

P. aeruginosa PA14 = experiment: microbe, parasite or virus in culture; parameters: MICa: MIC of the antibiotic / MICac: MIC of the antibiotic in the combination: unit not given beside the values; conditions: for MIC: Pseudomonas aeruginosa, PA14, 18 h, read-out: MICa: MIC of the antibiotic; for FICI / MICac: MIC of the antibiotic in the combination: strain PA14; for FICI: antibiotic + D-11 (MICb/MICbc 128/4); for MICac: MIC of the antibiotic in the combination: with D-11 at MICbc 4, unit not given
Summary of the method: as §1

P. aeruginosa AUMC-Pa-2 = conditions: strain AUMC-Pa-2; antibiotic + D-11 (MICb/MICbc 64/4)
Summary of the method: as §1

P. aeruginosa AUMC-Pa-1 = conditions: strain AUMC-Pa-1; antibiotic + D-11 (MICb/MICbc 128/4)
Summary of the method: as §1

P. aeruginosa AUMC-Pa-5 = experiment: microbe, parasite or virus in culture; conditions: for FICI: antibiotic + D-11 (MICb/MICbc 64/4); for MICac: MIC of the antibiotic in the combination: with D-11 at MICbc 4
Summary of the method: as §1

P. aeruginosa AUMC-Pa-3 = experiment: microbe, parasite or virus in culture; conditions: for MIC: Pseudomonas aeruginosa, AUMCPA3, 18 h, read-out: MICa: MIC of the antibiotic; for FICI / MICac: MIC of the antibiotic in the combination: strain AUMC-Pa-3; for FICI: antibiotic + D-11 (MICb/MICbc 128/4); for MICac: MIC of the antibiotic in the combination: with D-11 at MICbc 4, unit not given
Summary of the method: as §1

P. aeruginosa AUMC-Pa-6 = experiment: microbe, parasite or virus in culture; conditions: for FICI: antibiotic + D-11 (MICb/MICbc 64/4); for MICac: MIC of the antibiotic in the combination: with D-11 at MICbc 4
Summary of the method: as §1

P. aeruginosa AUMC-Pa-4 = experiment: microbe, parasite or virus in culture; conditions: for FICI: antibiotic + D-11 (MICb/MICbc 128/4); for MICac: MIC of the antibiotic in the combination: with D-11 at MICbc 4
Summary of the method: as §1

P. aeruginosa PAO1 = experiment: microbe, parasite or virus in culture; conditions: PAO1; for MIC: Pseudomonas aeruginosa, PAO1, 18 h, read-out: MICa: the MIC of antibiotics, S3 Table
Summary of the method: as §1

[2] = read-out: Antibiotic sensibility (MIC) of clinical P. aeruginosa isolate AUMC-Pa-1, strain AUMC-Pa-1
[3] = read-out: Antibiotic sensibility (MIC) of clinical P. aeruginosa isolate AUMC-Pa-2, strain AUMC-Pa-2
[4] = read-out: Antibiotic sensibility (MIC) of clinical P. aeruginosa isolate AUMC-Pa-3, strain AUMC-Pa-3
[5] = read-out: Antibiotic sensibility (MIC) of clinical P. aeruginosa isolate AUMC-Pa-4, strain AUMC-Pa-4
[6] = read-out: Antibiotic sensibility (MIC) of clinical P. aeruginosa isolate AUMC-Pa-5, strain AUMC-Pa-5
[7] = read-out: Antibiotic sensibility (MIC) of clinical P. aeruginosa isolate AUMC-Pa-6, strain AUMC-Pa-6
[8] = read-out: Antibiotic sensibility (MIC) of clinical P. aeruginosa isolate HM-214, strain HM-214
[9] = read-out: Antibiotic sensibility (MIC) of clinical P. aeruginosa isolate NR-31040, strain NR-31040
[10] = read-out: Antibiotic sensibility (MIC) of clinical P. aeruginosa isolate NR-31041, strain NR-31041
[11] = strain NR-31040, unit not given
[12] = strain AUMC-Pa-5, unit not given
[13] = strain AUMC-Pa-6, unit not given
[14] = strain AUMC-Pa-4, unit not given
[15] = S3 Table, antibiotic + 2 μM D-11

`CO[C@@H]1[C@@H](OC(N)=O)[C@@H](O)[C@H](Oc2ccc3c(O)c(NC(=O)c4ccc(O)c(CC=C(C)C)c4)c(=O)oc3c2C)OC1(C)C` [Novobiocin] gave an FICI (P. aeruginosa HM-214) of 0.531, an MIC [1, 2] of over 128 µM and an MIC [1, 3] of over 128 µM. The MIC [1, 4] was over 128 µM, the MIC [1, 5] was over 128 µM and the MIC [1, 6] was over 128 µM. The MIC [1, 7] was over 128 µM, the MIC [1, 8] was over 128 µM and the MIC [1, 9] was over 128 µM. The MIC [1, 10] was over 128 µM, the MIC (P. aeruginosa ATCC27853) was over 128 µM and the FICI (P. aeruginosa ATCC27853) was 0.133. The “MICac: MIC of the antibiotic in the combination” value (“MICac: MIC of the antibiotic” for short) (P. aeruginosa ATCC27853) was 2, the MIC (P. aeruginosa NR-31041) was over 128 µM and the FICI (P. aeruginosa NR-31041) was 0.078. The “MICac: MIC of the antibiotic” value (P. aeruginosa NR-31041) was 4, the MIC (P. aeruginosa PAK) was over 128 µM and the FICI (P. aeruginosa PAK) was 0.070. The “MICac: MIC of the antibiotic” value (P. aeruginosa PAK) was 2, the MIC (P. aeruginosa NR-31040; Pseudomonas aeruginosa, NR31040, 18 h, read-out: MICa: MIC of the antibiotic) was over 128 µM and the FICI (P. aeruginosa NR-31040; strain NR-31040) was 0.281. The “MICac: MIC of the antibiotic” value (P. aeruginosa NR-31040; [11]) was 64, the MIC (P. aeruginosa PA14) was over 128 µM and the FICI (P. aeruginosa PA14) was 0.063. For the same compound, the “MICac: MIC of the antibiotic” value (P. aeruginosa PA14) was 8, the FICI (P. aeruginosa AUMC-Pa-2) was 0.070 and the FICI (P. aeruginosa AUMC-Pa-1) was 0.035. For the same compound, the MIC (P. aeruginosa AUMC-Pa-5; Pseudomonas aeruginosa, AUMCPA5, 18 h, read-out: MICa: MIC of the antibiotic) was over 128 µM, the FICI (P. aeruginosa AUMC-Pa-5; strain AUMC-Pa-5) was 0.563 and the “MICac: MIC of the antibiotic” value (P. aeruginosa AUMC-Pa-5; [12]) was >128/128. The MIC (P. aeruginosa AUMC-Pa-3) was over 128 µM, the FICI (P. aeruginosa AUMC-Pa-3) was 0.033 and the “MICac: MIC of the antibiotic” value (P. aeruginosa AUMC-Pa-3) was 0.5. The MIC (P. aeruginosa AUMC-Pa-6; Pseudomonas aeruginosa, AUMCPA6, 18 h, read-out: MICa: MIC of the antibiotic) was over 128 µM, the FICI (P. aeruginosa AUMC-Pa-6; strain AUMC-Pa-6) was 0.563 and the “MICac: MIC of the antibiotic” value (P. aeruginosa AUMC-Pa-6; [13]) was >128/128. For the same compound, the MIC (P. aeruginosa AUMC-Pa-4; Pseudomonas aeruginosa, AUMCPA4, 18 h, read-out: MICa: MIC of the antibiotic) was over 128 µM, the FICI (P. aeruginosa AUMC-Pa-4; strain AUMC-Pa-4) was 0.531 and the “MICac: MIC of the antibiotic” value (P. aeruginosa AUMC-Pa-4; [14]) was >128/128. For the same compound, the “reduction of the MICs” value (P. aeruginosa PAO1; in the presence of 4 μM of D-11) was 512 fold, the MIC (P. aeruginosa PAO1; antibiotic alone) was over 128 µM and the FICI (P. aeruginosa PAO1; [15]) was 0.064. For the same compound, the “MICac: the MIC for the antibiotic in the combination” value (shortened to “MICac: the MIC for the antibiotic”) (P. aeruginosa PAO1; S3 Table, with 2 μM D-11) was 0.5 µM and the “MICac: the MIC for the antibiotic” value (P. aeruginosa PAO1; S3 Table, with 4 μM D-11) was 0.5 µM.
With `CO[C@H]1/C=C/O[C@@]2(C)Oc3c(C)c(O)c4c(c3C2=O)C2=NC3(CCN(CC(C)C)CC3)NC2=C(NC(=O)/C(C)=C\C=C\[C@H](C)[C@H](O)[C@@H](C)[C@@H](O)[C@@H](C)[C@H](OC(C)=O)[C@@H]1C)C4=O` [Rifabutin] the FICI (P. aeruginosa HM-214) was 0.039, the MIC [1, 2] was 32 µM and the MIC [1, 3] was 8 µM. It also gave an MIC [1, 4] of 16 µM, an MIC [1, 5] of 16 µM and an MIC [1, 6] of 32 µM. The MIC [1, 7] was 16 µM, the MIC [1, 8] was 32 µM and the MIC [1, 9] was 32 µM. For the same compound, the MIC [1, 10] was 32 µM, the MIC (P. aeruginosa ATCC27853) was 16 µM and the FICI (P. aeruginosa ATCC27853) was 0.133. For the same compound, the “MICac: MIC of the antibiotic” value (P. aeruginosa ATCC27853) was 0.25, the MIC (P. aeruginosa NR-31041) was 32 µM and the FICI (P. aeruginosa NR-31041) was 0.070. For the same compound, the “MICac: MIC of the antibiotic” value (P. aeruginosa NR-31041) was 0.25, the MIC (P. aeruginosa PAK) was 16 µM and the FICI (P. aeruginosa PAK) was 0.078. For the same compound, the “MICac: MIC of the antibiotic” value (P. aeruginosa PAK) was 0.25, the FICI (P. aeruginosa NR-31040; strain NR-31040) was 0.094 and the “MICa: MIC of the antibiotic” value (P. aeruginosa NR-31040; strain NR-31040, antibiotic alone, unit not given) was 32. For the same compound, the “MICac: MIC of the antibiotic” value (P. aeruginosa NR-31040; [11]) was 2, the MIC (P. aeruginosa PA14) was over 128 µM and the FICI (P. aeruginosa PA14) was 0.039. The “MICac: MIC of the antibiotic” value (P. aeruginosa PA14) was 2, the FICI (P. aeruginosa AUMC-Pa-2) was 0.070 and the FICI (P. aeruginosa AUMC-Pa-1) was 0.039. For the same compound, the FICI (P. aeruginosa AUMC-Pa-5; strain AUMC-Pa-5) was 0.313, the “MICa: MIC of the antibiotic” value (P. aeruginosa AUMC-Pa-5; strain AUMC-Pa-5, antibiotic alone, unit not given) was 32 and the “MICac: MIC of the antibiotic” value (P. aeruginosa AUMC-Pa-5; [12]) was 8. For the same compound, the MIC (P. aeruginosa AUMC-Pa-3) was 16 µM, the FICI (P. aeruginosa AUMC-Pa-3) was 0.035 and the “MICac: MIC of the antibiotic” value (P. aeruginosa AUMC-Pa-3) was 0.063. The FICI (P. aeruginosa AUMC-Pa-6; strain AUMC-Pa-6) was 0.313, the “MICa: MIC of the antibiotic” value (P. aeruginosa AUMC-Pa-6; strain AUMC-Pa-6, antibiotic alone, unit not given) was 16 and the “MICac: MIC of the antibiotic” value (P. aeruginosa AUMC-Pa-6; [13]) was 4. For the same compound, the FICI (P. aeruginosa AUMC-Pa-4; strain AUMC-Pa-4) was 0.094, the “MICa: MIC of the antibiotic” value (P. aeruginosa AUMC-Pa-4; strain AUMC-Pa-4, antibiotic alone, unit not given) was 16 and the “MICac: MIC of the antibiotic” value (P. aeruginosa AUMC-Pa-4; [14]) was 1. The MIC (P. aeruginosa PAO1; antibiotic alone) was 32 µM, the FICI (P. aeruginosa PAO1; [15]) was 0.064 and the FICI (P. aeruginosa PAO1; S3 Table, antibiotic + 4 μM D-11) was 0.126. The “MICac: the MIC for the antibiotic” value (P. aeruginosa PAO1; S3 Table, with 2 μM D-11) was 0.0625 µM, the “MICac: the MIC for the antibiotic” value (P. aeruginosa PAO1; S3 Table, with 4 μM D-11) was 0.03125 µM and the “MICa: the MIC of antibiotics” value (P. aeruginosa PAO1; S3 Table, antibiotic alone) was 32 µM.

Source: article PMC8445441, “Elucidating the mechanism by which synthetic helper peptides sensitize Pseudomonas aeruginosa to multiple antibiotics” (PLoS Pathogens, 2021)
